From publication PMC12764492, “Therapeutic 6-thio-deoxyguanosine inhibits telomere elongation in cancer cells by inducing a non-productive stalled telomerase complex” (Nature Communications, 2025)

Target: T1, DNA polymerase δ (Pol δ) holoenzyme (Homo sapiens, UniProt P28340)
T1 construct: gene POLD1; recombinant human Pol δ heterotetramer; with other Pol δ subunits (heterotetramer); PCNA
Experiment: primer extension by reconstituted Pol δ holoenzyme with 6-thio-dGTP ([…]) replacing dGTP; inserted, not significantly inhibitory
Assay type: biochemical

T1 sequence (P28340 whole entry): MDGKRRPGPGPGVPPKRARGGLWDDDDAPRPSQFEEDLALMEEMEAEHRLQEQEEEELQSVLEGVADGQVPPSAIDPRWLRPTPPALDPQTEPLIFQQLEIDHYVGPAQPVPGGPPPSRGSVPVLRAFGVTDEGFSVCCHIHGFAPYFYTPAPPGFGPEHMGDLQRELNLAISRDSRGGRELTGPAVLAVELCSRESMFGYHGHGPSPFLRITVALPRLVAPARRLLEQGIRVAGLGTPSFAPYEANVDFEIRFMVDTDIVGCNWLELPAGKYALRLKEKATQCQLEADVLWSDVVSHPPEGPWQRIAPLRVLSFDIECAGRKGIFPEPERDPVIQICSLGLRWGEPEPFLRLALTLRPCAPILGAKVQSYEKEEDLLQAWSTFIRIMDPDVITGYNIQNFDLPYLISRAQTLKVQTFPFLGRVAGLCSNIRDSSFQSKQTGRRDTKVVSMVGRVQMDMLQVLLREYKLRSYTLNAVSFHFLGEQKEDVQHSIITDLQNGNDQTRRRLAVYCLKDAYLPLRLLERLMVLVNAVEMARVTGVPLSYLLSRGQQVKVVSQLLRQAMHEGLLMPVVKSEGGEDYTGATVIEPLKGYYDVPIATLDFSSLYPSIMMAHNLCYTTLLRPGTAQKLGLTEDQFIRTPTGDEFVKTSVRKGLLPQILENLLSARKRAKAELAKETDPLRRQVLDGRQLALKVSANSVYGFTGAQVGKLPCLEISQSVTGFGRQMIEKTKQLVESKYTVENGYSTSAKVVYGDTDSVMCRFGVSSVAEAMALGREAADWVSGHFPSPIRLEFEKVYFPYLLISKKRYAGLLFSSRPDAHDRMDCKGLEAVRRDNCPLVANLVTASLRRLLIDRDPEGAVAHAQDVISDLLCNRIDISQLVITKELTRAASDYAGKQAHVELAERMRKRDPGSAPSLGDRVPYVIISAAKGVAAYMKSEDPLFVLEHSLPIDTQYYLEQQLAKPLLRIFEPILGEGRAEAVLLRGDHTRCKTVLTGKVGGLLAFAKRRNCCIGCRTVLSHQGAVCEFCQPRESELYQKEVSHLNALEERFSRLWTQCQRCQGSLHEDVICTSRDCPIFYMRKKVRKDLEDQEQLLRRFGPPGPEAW
T1 sequence (P49005 whole entry partner): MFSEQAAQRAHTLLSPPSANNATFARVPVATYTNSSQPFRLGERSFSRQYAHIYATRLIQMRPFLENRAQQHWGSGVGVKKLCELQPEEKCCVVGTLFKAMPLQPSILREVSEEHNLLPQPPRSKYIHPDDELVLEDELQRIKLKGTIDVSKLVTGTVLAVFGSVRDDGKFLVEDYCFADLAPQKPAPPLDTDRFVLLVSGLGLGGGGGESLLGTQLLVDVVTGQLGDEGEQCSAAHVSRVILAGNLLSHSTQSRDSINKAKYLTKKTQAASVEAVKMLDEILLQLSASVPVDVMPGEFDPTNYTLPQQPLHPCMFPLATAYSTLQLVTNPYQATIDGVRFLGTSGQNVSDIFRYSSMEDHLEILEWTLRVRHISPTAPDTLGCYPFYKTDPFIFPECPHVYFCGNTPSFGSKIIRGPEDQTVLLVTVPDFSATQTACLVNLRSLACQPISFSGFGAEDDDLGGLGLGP
T1 sequence (Q15054 2-466 partner): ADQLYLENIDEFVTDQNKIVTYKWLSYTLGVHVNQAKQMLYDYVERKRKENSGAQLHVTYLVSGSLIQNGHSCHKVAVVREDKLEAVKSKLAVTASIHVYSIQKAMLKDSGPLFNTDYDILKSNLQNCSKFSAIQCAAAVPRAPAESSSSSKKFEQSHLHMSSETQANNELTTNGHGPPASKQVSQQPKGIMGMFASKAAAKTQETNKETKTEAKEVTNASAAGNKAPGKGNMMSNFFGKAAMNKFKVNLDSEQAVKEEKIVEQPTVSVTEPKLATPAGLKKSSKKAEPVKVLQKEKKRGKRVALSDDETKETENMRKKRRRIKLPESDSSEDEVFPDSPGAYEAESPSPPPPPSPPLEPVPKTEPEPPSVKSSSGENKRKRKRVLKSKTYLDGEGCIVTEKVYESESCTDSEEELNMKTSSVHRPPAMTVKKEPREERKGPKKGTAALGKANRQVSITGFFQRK
T1 sequence (Q9HCU8 whole entry partner): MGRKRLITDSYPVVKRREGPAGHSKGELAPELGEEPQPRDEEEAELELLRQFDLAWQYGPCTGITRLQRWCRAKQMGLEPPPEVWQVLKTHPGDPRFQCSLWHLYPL
T1 sequence (P12004 whole entry partner): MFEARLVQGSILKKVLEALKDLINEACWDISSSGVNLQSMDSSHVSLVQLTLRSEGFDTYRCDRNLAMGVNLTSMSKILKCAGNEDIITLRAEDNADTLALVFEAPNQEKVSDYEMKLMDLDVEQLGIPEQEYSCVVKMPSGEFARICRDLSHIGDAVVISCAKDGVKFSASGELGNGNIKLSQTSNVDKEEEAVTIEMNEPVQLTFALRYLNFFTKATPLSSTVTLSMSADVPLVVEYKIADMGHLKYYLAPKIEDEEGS

Nc1nc2c(ncn2[C@H]2C[C@H](O)[C@@H](COP(=O)(O)OP(=O)(O)OP(=O)(O)O)O2)c(=S)[nH]1 [6-thio-dGTP]
primer extension by reconstituted Pol δ holoenzyme with 6-thio-dGTP (9.7 μM) rep: The substitution of 6-thio-dGTP for dGTP did not significantly alter primer extension
